Assay results reported in patent US20100298394A1, “ANTIFUNGAL AGENTS AS NEUROPROTECTANTS” (THE JOHNS HOPKINS UNIVERSITY, priority 2007, published 2010).

What was measured:
[1] = test system: rat mixed hippocampal cultures; assay: Titration of 3-NP toxicity, MTT endpoint; type: cell-based; conditions: 3 mM 3-NP, 18 hours, compared to 0.1% DMSO vehicle control
Description: FIG. 1 presents an illustrative titration of 3-NP toxicity in rat mixed hippocampal cultures. Rat mixed hippocampal cultures, day 11-14 in vitro, were subjected to 18 hour exposure to 3-NP, followed by MTT treatment to quantitate cell viability.
(§1) Rat mixed hippocamal neuronal cultures are generated from freshly dissected rat hippocampi (embryonic day 18) in neurobasal media containing 5% fetal bovine serum and 2% B27 supplement. The cells are plated into 96 well plates at a density of 4×10^5 cells/mL and routinely used on days 11-14 following culturing. Cell viability is assessed with MTT [3-(4,5-dimethylthiazol-2-yl)-2,5-diphenyltetrazolium bromide] assay. The MTT assay is based on the ability of a mitochondrial dehydrogenase enzyme from viable cells to cleave the tetrazolium rings of the pale yellow MTT and form dark blue formazan crystals. See Mosmann (1983), J Immunol Methods, 65(1-2):55-63. These crystals are largely impermeable to cell membranes, and thus accumulate within healthy cells. The resultant formazan precipitates are solubilized with DMSO and read on a multiwell scanning spectrophotometer (ELISA reader). The number of surviving cells is directly proportional to the level of the formazan product created.
(§2) Mixed hippocampal cultures are incubated with 3-NP (0.5-10 mM) for 18 hours in a 0.1% DMSO vehicle and then assessed for viability using an MTT assay.

[2] = test system: rat mixed hippocampal cultures; assay: HIV-1 Tat neurotoxicity assay, MTT endpoint; type: cell-based; conditions: for protection of hippocampal cultures from HIV-Tat toxicity (FIG. 5): increasing concentrations, 1 hour preincubation, 500 nM Tat1-72 for 18 hours; for protection from HIV-1 Tat toxicity (positive controls, FIG. 3): 10 μM, 1 hour pretreatment, 500 nM Tat for 18 hours
Source text: (§3) We evaluate the protective efficacy of a number of antifungal agents against many different neurotoxins, ranging from the chemotoxic 6-OHDA, NMDA, 3-nitropropionic acid (3-NP), and viral proteins such as Tat and gp120. Thus, we provide an in vitro neuroprotection assay using rat mixed hippocampal cultures, in which we evaluate the protective efficacy of neuroprotective compounds described herein. The oxidative stressor 3-NP is used to elicit toxicity in the rat hippocampal cultures to mimic the oxidative damage, reactive oxygen species production and ensuing neurodegeneration resulting from HIV infection. Another measure of neurotoxicity which results from HIV infection is evaluated by exposure of the hippocampal cultures to HIV-1 Tat (Li et al (2005), Neurotox Res, 8(1-2):119-134).
as §1
The assay system is validated using two neuroprotective agents, GPI 1046 and Resveratrol. […] Cultures are preincubated with GPI 1046 or Resveratrol for one hour prior to an 18 hour exposure to 3 mM 3-NP. […] The same neuroprotective compounds are evaluated for efficacy against HIV-1 Tat protein toxicity using the same 1 hour preincubation protocol.
The neural and glial cells were preincubated with the neuroprotective compound for 1 hour followed by exposure to 500 nM of Tat1-72 for 18 hours.

[3] = test system: rat mixed hippocampal cultures; assay: 3-NP neurotoxicity (neuroprotection) assay, MTT endpoint; type: cell-based; conditions: for % Protection vs. 3-NP / Protection vs 3NP: 10 μM agent, 60 minutes incubation, 3 mM 3-NP, compared to 0.1% DMSO vehicle control; for protection from oxidative damage elicited by 3-NP (FIG. 4): increasing concentrations, 1 h prior to 3 mM 3-NP for 18 h; for protection from oxidative damage elicited by 3-NP (positive controls, FIG. 2): 10 μM, 1 hour pretreatment, 3 mM 3-NP for 18 hours
Description: For example, a cell viability assay can be utilized to detect and/or measure the ability of a compound disclosed herein to protect neuronal and/or glial cells. In some embodiments, mixed hippocampal cell cultures are prepared as described in, e.g., Haughey et al. (1999), J Neurochem, 73(4):1363-1374, and Haughey et al (2004), J Neurosci, 24(1):257-268. Subsequently, the cultures are pretreated for one hour in the presence of a candidate neuroprotective agent and then incubated with a cytotoxic agent for about 18 hours. Examples of cytotoxic agents include, but are not limited to, oxidative stressors (e.g., 3-nitropropionic acid (3-NP) or H2O2),.excitatory amino acids (e.g., kainate), or neurotoxic proteins (e.g., Hiv Tat, or Aβ peptides). […] The level of protection (“percent protection”) provided by the test compound at a given test concentration in vitro can be expressed as: […]
as §3, §1, §2
Neuroprotection vs 3NP is measured as a percentage of neural and/or glial cell that are protected from 3NP induced cell death after incubation with the neuroprotective agent (10 μM) for 60 minutes when compared to a 0.1% DMSO vehicle control.
The neural and glial cells were preincubated with the neuroprotective compound for 1 hour followed by exposure to3 mM of the toxin for 18 hours.

[4] = test system: Human cortical neuronal cultures; assay: 6-OHDA toxicity assay in human neurons, MTT endpoint; type: cell-based; conditions: increasing concentrations, 1 h prior to 100 μM 6-OHDA for 18 h
Description: (§4) Human cortical neuronal cultures were treated with increasing concentrations of fluconazole for 1 h prior to exposure to 3 mM 3-NP (panel A) or 100 μM 6-OHDA (panel B) for 18 h. Cell survival was measured by MTT assay. Statistical significance was determined by ANOVA with Newman-Keuls pairwise post hoc comparisons. Statistical significance * indicates p<0.05, ** indicates p<0.01; *** indicates p<0.001.
(§5) FIG. 9 illustrates the protection of human neuronal cultures from 3-NP and 6-OHDA with fluconazole (FIGS. 9A-9B, respectively). The neural and glial cells were preincubated with the neuroprotective compound for 1 hour followed by exposure to 3 mM 3-NP or 100 μM 6-OHDA for 18 hours.

[5] = test system: Mixed hippocampal cultures; assay: ADP ribose toxicity assay, MTT endpoint; type: cell-based, rat; conditions: increasing concentrations, 24 h prior to 1 mM ADP ribose for 18 h
Description: (§6) Mixed hippocampal cultures were treated with increasing concentrations of fluconazole (panel A) or voriconazole (panel B), for 24 h prior to exposure to 1 mM ADP ribose for 18 h. Cell survival was measured following ADP ribose by MTT assay. Statistical significance was determined by ANOVA with Newman-Keuls pairwise post hoc comparisons. Statistical significance * indicates p<0.05, ** indicates p<0.01; *** indicates p<0.001.
as §1, with “The number of surviving cells is directly proportional to the level of the formazan product created.” left out

[6] = test system: Mixed hippocampal cultures; assay: 6-OHDA neurotoxicity assay, MTT endpoint; type: cell-based, rat; conditions: increasing concentrations, 1 h prior to 100 μM 6-OHDA for 18 h
Description: as §6, with “1” for “24”, “100 μM 6-hydroxydopamine (6-OHDA)” for “1 mM ADP ribose”, “6-OHDA” for “ADP ribose”, “p<0.00” for “p<0.001.”
as §1, with “The number of surviving cells is directly proportional to the level of the formazan product created.” left out

[7] = test system: Human cortical neuronal cultures; assay: 3-NP toxicity assay in human neurons, MTT endpoint; type: cell-based; conditions: increasing concentrations, 1 h prior to 3 mM 3-NP for 18 h
Description: as §4, §5

[8] = test system: Mixed hippocampal cultures; assay: NMDA excitotoxicity assay, MTT endpoint; type: cell-based, rat; conditions: increasing concentrations, 1 h prior to 500 μM NMDA for 18 h
Description: as §6, with “1” for “24”, “500 μM N-methyl D-aspartate (NMDA)” for “1 mM ADP ribose”, “NMDA” for “ADP ribose”
as §1, with “The number of surviving cells is directly proportional to the level of the formazan product created.” left out

| Structure (SMILES) | protection of hippocampal cultures from HIV-Tat toxicity (FIG. 5) [2] | % Protection vs. 3-NP [3] | Protection vs 3NP [3] | protection from oxidative damage elicited by 3-NP (FIG. 4) [3] | further results |
| --- | --- | --- | --- | --- | --- |
| O=C(O)CC[N+](=O)[O-] [3-NP, 3-nitropropionic acid] |  |  |  |  | cytotoxicity [1]: 25-35% |
| Clc1ccccc1C(c1ccccc1)(c1ccccc1)n1ccnc1 [CLOTRIMAZOLE, Clotrimazole] | concentration dependent protection | 12.6% | 12.57% | protect hippocampal neurons from oxidative damage elicited by 3-NP |  |
| Clc1ccc(COC(Cn2ccnc2)c2ccc(Cl)cc2Cl)cc1 (stereo not shown) [ECONAZOLE NITRATE, Econazole Nitrate] |  | 141.2% | 141.18% |  |  |
| CCCCCCOc1ccccc1C(N)=O [EXALAMIDE] |  |  | 9.19% |  |  |
| OC(Cn1cncn1)(Cn1cncn1)c1ccc(F)cc1F [FLUCONAZOLE, Fluconazole] | concentration dependent protection | 13.3% | 13.35% | protect hippocampal neurons from oxidative damage elicited by 3-NP | protection of human cortical neurons from 6-OHDA toxicity (FIG. 9B) [4]: protects human cortical neurons; protection from toxicity elicited by ADP ribose (FIG. 8) [5]: protect hippocampal neurons from toxicity elicited by ADP ribose; protection from 6-OHDA neurotoxicity (FIG. 7) [6]: protect hippocampal neurons from 6-OHDA neurotoxicity; protection of human cortical neurons from 3-NP toxicity (FIG. 9A) [7]: protects human cortical neurons; protection from excitotoxic lesions elicited by NMDA (FIG. 6) [8]: protect hippocampal neurons from excitotoxic lesions elicited by NMDA |
| Fc1ccc(C(c2ccccc2)(c2ccccc2F)n2ccnc2)cc1 (stereo not shown) [FLUTRIMAZOLE] |  |  | 46.85% |  |  |
| CCC(C)(C)C(=O)C(=O)N1CCC[C@H]1C(=O)OCCCc1cccnc1 [GPI 1046] |  |  |  |  | protection from HIV-1 Tat toxicity (positive controls, FIG. 3) [2]: protected hippocampal neurons from Tat toxicity; protection from oxidative damage elicited by 3-NP (positive controls, FIG. 2) [3]: significantly protected rat neurons from oxidative damage |
| CC(=O)N1CCN(c2ccc(OCC3COC(Cn4ccnc4)(c4ccc(Cl)cc4Cl)O3)cc2)CC1 (stereo not shown) [KETOCONAZOLE] |  |  | 20.93% |  |  |
| Clc1ccc(COC(Cn2ccnc2)c2ccc(Cl)cc2Cl)c(Cl)c1 (stereo not shown) [MICONAZOLE NITRATE, Miconazole Nitrate] |  | 81.6% | 81.61% |  |  |
| C[C@@H]1[C@H](O)[C@@H](C)/C=C/C=C/CC/C=C/C=C/C=C/C=C/C(O[C@H]2O[C@H](C)[C@@H](O)[C@H](N)[C@@H]2O)CC2O[C@](O)(CC(O)C(O)CCC(O)CC(O)CC(O)CC(=O)O[C@H]1C)CC(O)C2C(=O)O (stereo partly shown) [NYSTATIN] |  |  | 46.72% |  |  |
| COc1ccc(/C=C/c2cc(O)cc(O[C@@H]3O[C@H](CO)[C@@H](O)[C@H](O)[C@H]3O)c2)cc1O [RHAPONTIN] |  |  | 22.12% |  |  |
| Oc1ccc(C=Cc2cc(O)cc(O)c2)cc1 [Resveratrol] |  |  |  |  | protection from HIV-1 Tat toxicity (positive controls, FIG. 3) [2]: protected hippocampal neurons from Tat toxicity; protection from oxidative damage elicited by 3-NP (positive controls, FIG. 2) [3]: significantly protected rat neurons from oxidative damage |
| Clc1ccc(CSC(Cn2ccnc2)c2ccc(Cl)cc2Cl)cc1 (stereo not shown) [SULCONAZOLE NITRATE, Sulconazole Nitrate] |  | 18.21% | 18.21% |  |  |
| Cc1cccc(N(C)C(=S)Oc2ccc3ccccc3c2)c1 [TOLNAFTATE, Tolnaftate] | concentration dependent protection | 66.8% | 66.83% | protect hippocampal neurons from oxidative damage elicited by 3-NP |  |
| CC(=O)OCC(COC(C)=O)OC(C)=O [TRIACETIN] |  |  | 45.14% |  |  |
| Clc1ccc(COC(Cn2ccnc2)c2ccc(Cl)cc2Cl)cc1 (stereo not shown) [econazole] | concentration dependent protection |  |  | protect hippocampal neurons from oxidative damage elicited by 3-NP |  |
| Clc1ccc(COC(Cn2ccnc2)c2ccc(Cl)cc2Cl)c(Cl)c1 (stereo not shown) [miconazole] | concentration dependent protection |  |  | protect hippocampal neurons from oxidative damage elicited by 3-NP |  |
| C[C@@H](c1ncncc1F)[C@](O)(Cn1cncn1)c1ccc(F)cc1F [voriconazole] | concentration dependent protection |  |  | protect hippocampal neurons from oxidative damage elicited by 3-NP | protection from toxicity elicited by ADP ribose (FIG. 8) [5]: protect hippocampal neurons from toxicity elicited by ADP ribose; protection from 6-OHDA neurotoxicity (FIG. 7) [6]: protect hippocampal neurons from 6-OHDA neurotoxicity; protection from excitotoxic lesions elicited by NMDA (FIG. 6) [8]: protect hippocampal neurons from excitotoxic lesions elicited by NMDA |
